Data: ChEMBL document CHEMBL1156465, “Structures of Mycobacterium tuberculosis 1-deoxy-D-xylulose-5-phosphate reductoisomerase provide new insights into catalysis” (J Biol Chem, 2007)

Test: Inhibition of Escherichia coli DXR by spectrophotometric method

`O=CN(O)CCCP(=O)(O)O` [FOSMIDOMYCIN] showed an IC50 of 0.03 µM.
